# The source made the active and inactive calls. The rule behind the calls is not given here.
# Legend:
# Gamma-secretase [1] = assay: Effect on gamma-secretase activity in human H4 cells expressing APP695 assessed as increase in Amyloid beta-38 formation by LPECL assay; assay type: cell-based; details: read-out: IC50 (the source's name)
# Gamma-secretase [2] = assay: Effect on gamma-secretase activity in human H4 cells expressing APP695 assessed as reduction of Amyloid beta-40 formation LPECL assay; assay type: cell-based
# Gamma-secretase [3] = assay: Effect on gamma-secretase activity in human H4 cells expressing APP695 assessed as reduction of Amyloid beta42 formation LPECL assay; assay type: cell-based
# H4 = assay: Cytotoxicity against human H4 cells assessed as reduction of viability; assay type: cell-based
# [4] = biological target: Prostaglandin G/H synthase 1 (Homo sapiens) (UniProt P23219); assay: Activity of COX1 at 10 uM
# Chain of Prostaglandin G/H synthase 1 (Homo sapiens) (P23219 whole entry): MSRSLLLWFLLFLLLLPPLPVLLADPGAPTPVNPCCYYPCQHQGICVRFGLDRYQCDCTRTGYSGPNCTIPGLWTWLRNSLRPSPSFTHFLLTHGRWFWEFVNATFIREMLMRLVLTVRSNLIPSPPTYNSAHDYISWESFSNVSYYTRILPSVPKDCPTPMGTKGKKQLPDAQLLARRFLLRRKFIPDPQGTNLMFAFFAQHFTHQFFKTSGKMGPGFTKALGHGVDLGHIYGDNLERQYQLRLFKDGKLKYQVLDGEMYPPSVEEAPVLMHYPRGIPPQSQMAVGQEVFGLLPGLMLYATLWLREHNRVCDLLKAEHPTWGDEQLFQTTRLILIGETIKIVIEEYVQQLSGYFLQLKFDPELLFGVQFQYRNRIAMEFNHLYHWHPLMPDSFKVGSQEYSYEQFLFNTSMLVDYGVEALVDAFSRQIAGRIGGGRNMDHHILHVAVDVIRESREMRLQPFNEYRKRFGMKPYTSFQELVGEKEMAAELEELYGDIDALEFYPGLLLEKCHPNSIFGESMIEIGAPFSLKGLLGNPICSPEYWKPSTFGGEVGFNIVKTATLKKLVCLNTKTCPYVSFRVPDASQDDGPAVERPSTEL
# [5] = biological target: T1, Prostaglandin G/H synthase 2 (Homo sapiens) (UniProt P35354); assay: Activity of COX2 at 10 uM
# T1 sequence (whole entry): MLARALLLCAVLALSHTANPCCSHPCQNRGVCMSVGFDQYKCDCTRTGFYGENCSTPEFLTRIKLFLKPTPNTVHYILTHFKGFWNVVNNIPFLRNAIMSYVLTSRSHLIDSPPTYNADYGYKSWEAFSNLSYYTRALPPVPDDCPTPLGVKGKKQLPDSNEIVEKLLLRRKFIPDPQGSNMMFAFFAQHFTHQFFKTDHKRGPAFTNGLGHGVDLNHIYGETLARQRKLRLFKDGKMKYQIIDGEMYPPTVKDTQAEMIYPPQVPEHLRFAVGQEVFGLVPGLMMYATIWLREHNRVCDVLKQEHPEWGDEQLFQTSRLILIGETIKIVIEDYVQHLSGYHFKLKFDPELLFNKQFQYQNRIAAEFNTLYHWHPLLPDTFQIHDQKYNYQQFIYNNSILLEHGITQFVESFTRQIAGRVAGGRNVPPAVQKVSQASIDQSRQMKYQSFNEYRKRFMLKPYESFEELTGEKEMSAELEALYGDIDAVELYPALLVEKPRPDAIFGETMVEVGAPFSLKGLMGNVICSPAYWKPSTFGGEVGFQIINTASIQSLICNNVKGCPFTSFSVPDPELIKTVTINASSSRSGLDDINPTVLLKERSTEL
Structure (SMILES),EC50 (Gamma-secretase [1]),IC50 (Gamma-secretase [2]),IC50 (Gamma-secretase [3]),Activity (H4),Activity [4],Activity [5]
Cc1ccc(S(=O)(=O)n2c3ccccc3c3ccc(OCC(=O)O)cc32)cc1,13 µM,> 40 µM,39 µM,20 µM,–,–
CCCCCCCCCCn1c2ccccc2c2ccc(OCC(=O)O)cc21,–,> 40 µM,11 µM,> 40 µM,–,–
CCCCCCCCCCn1c2ccc(Cl)cc2c2ccc(C(C)C(=O)O)cc21 (configuration not stated),5.8 µM,> 40 µM,2.9 µM,–,–,–
O=C(O)COc1ccc2c3ccccc3n(S(=O)(=O)c3ccc(Cl)cc3)c2c1,32 µM,> 40 µM,32 µM,40 µM,–,–
O=C(O)COc1ccc2c(c1)[nH]c1ccccc12,> 40 µM,> 40 µM,> 40 µM,> 40 µM,–,–
O=C(O)COc1ccc2c3ccccc3n(S(=O)(=O)c3ccc(-c4ccccc4)cc3)c2c1,13 µM,40 µM,24 µM,20 µM,–,–
O=C(O)COc1ccc2c3ccccc3n(S(=O)(=O)c3cccc([N+](=O)[O-])c3)c2c1,16 µM,> 40 µM,> 40 µM,40 µM,–,–
O=C(O)COc1ccc2c3ccccc3n(S(=O)(=O)c3cc(C(F)(F)F)cc(C(F)(F)F)c3)c2c1,> 40 µM,> 40 µM,> 40 µM,20 µM,–,–
C[C@H](c1ccc(F)cc1CCCC(=O)O)N(c1cc(F)ccc1F)S(=O)(=O)c1ccc(Cl)cc1,–,–,0.0071 µM,–,–,–
CCCc1ccc(S(=O)(=O)n2c3ccccc3c3ccc(OCC(=O)O)cc32)cc1,–,> 40 µM,38 µM,> 40 µM,–,–
O=C(O)COc1ccc2c3ccccc3n(S(=O)(=O)c3ccccc3Br)c2c1,> 40 µM,> 40 µM,> 40 µM,40 µM,–,–
CCCCCCCCn1c2ccccc2c2ccc(OCC(=O)O)cc21,24 µM,> 40 µM,19 µM,> 40 µM,–,–
CCCCCCCCCn1c2ccccc2c2ccc(OCC(=O)O)cc21,30 µM,> 40 µM,17 µM,> 40 µM,–,–
CC(C)c1cc(C(C)C)c(S(=O)(=O)n2c3ccccc3c3ccc(OCC(=O)O)cc32)c(C(C)C)c1,7.8 µM,19 µM,7.5 µM,20 µM,inactive,inactive
O=C(O)COc1ccc2c3ccccc3n(S(=O)(=O)c3cc(F)cc(F)c3)c2c1,13 µM,> 40 µM,> 40 µM,40 µM,–,–
CCCCCCCCc1ccc(S(=O)(=O)n2c3ccccc3c3ccc(OCC(=O)O)cc32)cc1,–,> 40 µM,37 µM,> 40 µM,–,–
CC(C)c1cc(C(C)C)c(S(=O)(=O)n2c3ccc(Cl)cc3c3ccc(C(C)C(=O)O)cc32)c(C(C)C)c1 (configuration not stated),9.3 µM,> 20 µM,8.5 µM,–,–,–
